Test [1] has as its system zebrafish embryos. Put plainly: Induction of and exit from stasis in zebrafish embryos under normoxic conditions. The format is in vivo. Here is the method:
This example describes the identification of a compound that causes fish embryos to enter stasis. In this example, fish were maintained at 28° C. in fish water or embryo media. Briefly, zebrafish embryos at approximately 8 hpf were pre-treated with Pronase to remove the chorion. Approximately 10 pre-treated fish were placed in 30 mm petrie dishes in either fish water or embryo media. Dilutions of Rotenone (Sigma, St. Louis, Mo.) were added to the pre-treated fish in concentrations from approximately 10 μg/ml reduced in half-logs concentrations down to approximately 10 ng/ml. The embryos were exposed to the compound for approximately 12 hours at 28° C. under normoxic conditions. As a control, pre-treated embryos were incubated in normoxic conditions at 28° C. for the same period of time. After incubation with the compound, the embryos were assessed visually for entry into stasis. […] The Rotenone-treated embryos were removed into fresh medium and incubated at 28° C. under normoxic conditions for 24 hours. The embryos were then assessed visually for the ability to exit stasis.

In test [2] the test system is zebrafish embryos. The test is described as follows: Viability of zebrafish embryos treated with compound, in anoxia versus normoxia. The settings on record: approx. 8 hpf embryos. It is filed as in vivo. From the text:
Oxygen Deprivation Environments. For all studies an anaerobic bio-bag type A environmental chamber was used according to manufacturer's instructions (Becton Dickinson). This method contains a resazurin indicator that allows one to determine when the anoxic environment is established. A second method was used to verify suspended animation results. This method involved use of a chamber perfused with 100% N2 gas (Airgas Inc.) and monitored for oxygen using a FYRITE O2 Gas Analyzer (Bacharach, Pittsburgh, Pa.) and Resazurin Indicator (Becton Dickinson). By using these anoxia-producing methods, it took approximately two hours for the oxygen concentration to reach zero. Development of embryos could continue for another 1-2.5 hours, depending on the amount of water present.
This example describes the identification of a compound that causes fish embryos subjected to an anoxic/hypoxic environment to die. In this example, fish were maintained at 28° C. in fish water or embryo media (Westerfield, 1995). Briefly, zebrafish embryos at approximately 8 hpf were pre-treated with Pronase to remove the chorion. Approximately 10 pre-treated fish were placed in each 30 mm petrie dishes in either fish water or embryo media. […] After 24 hours in anoxia, the embryos were returned to room air and viability was assessed visually. […]

For the compound `C=C(C)[C@H]1Cc2c(ccc3c2O[C@@H]2COc4cc(OC)c(OC)cc4[C@@H]2C3=O)O1` [Rotenone], the “entry into stasis assessed visually” value in test [1] (0.1 μg/ml, approx. 8 hpf embryos, approx. 12 hours at 28° C. under normoxic conditions) is “enter stasis”. Besides, in test [1] (embryos removed into fresh medium, 28° C., normoxic conditions for 24 hours), the “ability to exit stasis assessed visually” value is listed as “reversible stasis inducer”.

Turning to “1H, 5H, 11H, 15H-Xantheno[2,3,4-ij:5,6,7-i′j′]diquinolizin-18-ium, 9-[4-(chloromethyl)phenyl]-2,3,6,7,12,13,16,17-octahydro-, chloride [M[…]]”, the “viability assessed visually after anoxia” value in test [2] (500 nM, approx. 2 h pre-exposure, 24 hours anoxia at 28° C., then returned to room air) is recorded as “not viable”. Moreover, the “viability, treated embryos not placed in anoxia” value in test [2] (normoxic conditions at 28° C. for 24 hours (control)) is on record as “viable”.

The values above are taken from patent publication US20050053912A1, “Methods for inducing reversible stasis” (priority 2001, published 2005).
